In data set [1] the test system is Cynomolgus monkey. In words: Increase in plasma LDL cholesterol in orally dosed cynomolgus monkey. In kind it is functional, Macaca fascicularis.
The nature of data set [2]: Cmax in cynomolgus monkey at 1 mg/kg, po by LC-MS analysis. The following applies: in vivo. It counts as ADME, organism-based, Macaca fascicularis. Also noted: dose 1 mg/kg, route oral.
Data set [3] concerns Cynomolgus monkey. In words: Increase in plasma triglycerides in orally dosed cynomolgus monkey. It counts as functional, Macaca fascicularis.
Data set [4] concerns Cynomolgus monkey. In words: In vivo transactivation in po dosed cynomolgus monkey blood assessed as induction ABCG1 mRNA expression after 24 hrs by PCR analysis. Particulars: Macaca fascicularis. It counts as functional, organism-based.
Data set [5] in a line: Plasma concentration in cynomolgus monkey at 1 mg/kg, po after 48 hrs by LC-MS analysis. In kind it is ADME, organism-based, Macaca fascicularis.
The nature of data set [6]: Tmax in cynomolgus monkey at 1 mg/kg, po by LC-MS analysis. It counts as ADME, organism-based, Macaca fascicularis. The following applies: in vivo.
Data set [7] relates to Cynomolgus monkey. In words: In vivo transactivation of LXRbeta in cynomolgus monkey assessed as induction of ABCG1 expression at 1 mg/kg, po by PCR analysis. It counts as functional, Macaca fascicularis.
For another data set, the species on record is Homo sapiens. In words: Toxicity in human assessed as decrease in mean neutrophil count at 15 mg after 7 days relative to baseline control. It counts as organism-based. Also noted: scale not given: the % may be the effect or the level left. The following applies: in vivo, 168 h.
In data set [8] the target is T1, Oxysterols receptor LXR-beta (Homo sapiens, UniProt P55055).
T1 sequence (P55055 whole entry): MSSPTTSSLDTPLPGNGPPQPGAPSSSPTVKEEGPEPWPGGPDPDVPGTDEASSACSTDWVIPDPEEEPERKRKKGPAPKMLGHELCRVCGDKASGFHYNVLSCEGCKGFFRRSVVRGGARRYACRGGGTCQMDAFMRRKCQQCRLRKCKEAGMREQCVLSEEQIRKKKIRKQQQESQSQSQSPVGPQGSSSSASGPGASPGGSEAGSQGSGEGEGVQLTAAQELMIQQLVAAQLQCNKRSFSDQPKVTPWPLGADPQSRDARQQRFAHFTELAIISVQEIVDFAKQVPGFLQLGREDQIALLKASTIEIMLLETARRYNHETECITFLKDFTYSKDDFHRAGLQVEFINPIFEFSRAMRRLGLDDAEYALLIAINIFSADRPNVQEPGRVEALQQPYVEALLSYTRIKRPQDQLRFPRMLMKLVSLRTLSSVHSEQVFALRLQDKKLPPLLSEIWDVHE
In words: Agonist activity at human full length LXRbeta expressed in African green monkey CV-1 cells co-expressing human pCMX/RXRalpha after 20 hrs by luciferase reporter gene assay. In kind it is cell-based.

Data set [9] concerns T2, Oxysterols receptor LXR-alpha (Homo sapiens), Q13133 [R305G].
T2 sequence (whole entry): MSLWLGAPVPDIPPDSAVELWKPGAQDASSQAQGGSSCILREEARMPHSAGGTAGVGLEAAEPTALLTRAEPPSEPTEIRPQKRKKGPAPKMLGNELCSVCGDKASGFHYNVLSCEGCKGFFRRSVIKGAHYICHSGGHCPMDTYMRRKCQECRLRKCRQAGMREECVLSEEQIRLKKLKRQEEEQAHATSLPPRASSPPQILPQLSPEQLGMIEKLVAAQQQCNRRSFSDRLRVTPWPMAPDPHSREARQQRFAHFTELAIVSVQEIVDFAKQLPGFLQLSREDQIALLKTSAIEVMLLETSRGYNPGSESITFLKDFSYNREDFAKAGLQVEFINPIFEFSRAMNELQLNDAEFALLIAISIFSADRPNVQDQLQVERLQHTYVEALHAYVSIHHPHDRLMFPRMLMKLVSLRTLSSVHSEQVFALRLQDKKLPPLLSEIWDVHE
In words: Agonist activity at human GAL-tagged LXRbeta-LBD R305G mutant transfected in HEK293T cells assessed as co-activator recruitment using NCoR as co-repressor by TR-FRET assay relative to TO901317. It counts as cell-based.

Data set [10] concerns the target T1, Oxysterols receptor LXR-beta. In words: Agonist activity at human LXRbeta-LBD (196 to 461 amino acids) expressed in HEK293T cells by luciferase reporter gene assay. It counts as cell-based. A general note: In a reporter assay the amount or activity of a reporter protein is the signal.
Data set [11] concerns the target T3, Oxysterols receptor LXR-beta (Homo sapiens) (UniProt P55055).
T3 sequence (whole entry): T1 sequence (P55055 whole entry)
In words: Agonist activity at human GAL-tagged LXRbeta-LBD F271A mutant transfected in HEK293T cells assessed as co-activator recruitment using D22 as co-activator by TR-FRET assay relative to TO901317. It counts as cell-based. For orientation: TR-FRET usually uses a lanthanide donor and a delayed reading to cut background.

Data set [12] deals with T2, Oxysterols receptor LXR-alpha (Homo sapiens), Q13133 [R305G]. In words: Agonist activity at human GAL-tagged LXRbeta-LBD R305G mutant transfected in HEK293T cells assessed as co-activator recruitment using TRAP220 as co-activator by TR-FRET assay relative to TO901317. In kind it is cell-based.
Data set [13] concerns the target T4, Oxysterols receptor LXR-alpha (Homo sapiens, UniProt Q13133).
T4 sequence (Q13133 whole entry): T2 sequence (whole entry) with G305R
In words: Agonist activity at human LXRalpha-LBD (182 to 447 amino acids) expressed in HEK293T cells by luciferase reporter gene assay. In kind it is cell-based.

The target in data set [14] is T3, Oxysterols receptor LXR-beta (Homo sapiens). In words: Agonist activity at human GAL-tagged LXRbeta-LBD F271A mutant transfected in HEK293T cells assessed as co-repressor recruitment using SMRT as co-repressor by TR-FRET assay relative to TO901317. It counts as cell-based.
The target of data set [15] is T1, Oxysterols receptor LXR-beta. In words: Agonist activity at GAL4-tagged human LXRbeta LBD expressed in HEK293T cells after 12 hrs by luciferase reporter gene assay. In kind it is cell-based.
The subject of the next data set is Mus musculus. In words: Reduction in hepatic collagen deposition in mouse at 30 mg/kg, ip for 30 days. It counts as functional. The following applies: 720 h.
For data set [16], the target named is T1, Oxysterols receptor LXR-beta. In words: Inverse agonist activity at LXRbeta (unknown origin) expressed in HEK293 cells 24 hrs by Dual-Glo luciferase assay. In kind it is cell-based.
The target in data set [17] is T4, Oxysterols receptor LXR-alpha. In words: Inverse agonist activity at LXRalpha (unknown origin) expressed in HEK293 cells 24 hrs by Dual-Glo luciferase assay. It counts as cell-based.
Data set [18] has as its target T5, Oxysterols receptor LXR-alpha (Homo sapiens) (UniProt Q13133).
T5 sequence (whole entry): T2 sequence (whole entry) with G305R
In words: Agonist activity at human LXRalpha expressed in HEK293 cells after 24 hrs by One-Glo luciferase reporter gene assay relative to TO901317. It counts as cell-based.

Data set [19] deals with T4, Oxysterols receptor LXR-alpha. In words: Agonist activity at human LXRalpha expressed in HEK293 cells after 24 hrs by One-Glo luciferase reporter gene assay. It counts as cell-based.

The values below come from ChEMBL document CHEMBL4257563, “Recent Advances in the Medicinal Chemistry of Liver X Receptors” (J Med Chem, 2018).

Positions count from the first letter of the chain named.

For orientation: Cmax means the peak of the concentration-time curve. Broadly, the EC50 is the concentration that produces a half-maximal response. As usually defined, the Tmax is the time from dosing to the highest level. For `CC(C)(O)c1cn(-c2ccc(-c3cccc(S(C)(=O)=O)c3)cc2)c(C(C)(C)c2ccccc2Cl)n1` [BMS-779788], the figures for the “fold change (FC)” value in the data set with Cynomolgus monkey [1], in the data set on Cynomolgus monkey [3] and with Cynomolgus monkey [7] were 12, 29 and 4.7, respectively. This compound also registered a Cmax in [2] of 2.23 µM. Further, in the data set on Cynomolgus monkey [4], the EC50 worked out at 0.61 µM. The concentration at 48 h in [5] amounted to 0.154 µM. In data set [6], the Tmax was found to be 2 h.
Consider `CC(C)(O)c1cn(-c2ccc(-c3cc(F)c(CO)c(S(C)(=O)=O)c3)cc2F)c(C(C)(C)c2c(Cl)cccc2Cl)n1` [BMS-852927], for which the Activity in the data set filed under Homo sapiens came out at 47%.
`CS(=O)(=O)c1cccc(-c2ccc(-c3cc(C(F)(F)F)nn3-c3ccccc3Cl)s2)c1` came in with an EC50 in data set [8] of 0.108 µM.
Take `CN(CC(=O)Nc1ccc(F)c(F)c1F)C(=O)c1ccc2c(c1)OCCO2`: the Activity amounted to 31% in data set [9], 13% in data set [11], 18% in data set [12] and 23% in [14]. Moreover, the EC50 in data set [10] was 0.53 µM; in data set [13] it was 0.15 µM.
In data set [15], `Cc1c(C(=O)OC(C)C(=O)N2CCNC2=O)oc2cc(F)ccc12` (stereo not drawn) came in with an EC50 of 0.72 µM.
A word on the inhibition in vivo: it is the drop in the measured response relative to a control, in per cent. The IC50 is the concentration that gives 50% inhibition. For `CCOC(=O)c1ccc(CN(Cc2ccc(-c3cccc(S(C)(=O)=O)c3)cc2)S(=O)(=O)c2c(C)cc(C)cc2C)o1`, at 30 mg/kg the inhibition in vivo with Mus musculus was 90%. The values for the IC50 in [16] and in [17] were 0.043 µM and 0.214 µM, respectively.
Usually Emax stands for the maximal effect, on the per cent scale that the assay sets. Consider `C[C@H](CCC(=O)N(C)C)[C@H]1CC[C@H]2[C@@H]3CC=C4C[C@@H](O)CC[C@]4(C)[C@H]3CC[C@]12C`, for which the Emax in [18] was 45%. In [19], this compound yielded an EC50 of 0.422 µM.
For `COC1CCN(C(=O)CC[C@@H](C)[C@H]2CC[C@H]3[C@@H]4CC=C5C[C@@H](O)CC[C@]5(C)[C@H]4CC[C@]23C)CC1`, in that order: 58% and 0.23 µM.
